Reference: ChEMBL document CHEMBL3885881, “DrugMatrix”

Organism: Rattus norvegicus
Assay: DrugMatrix - Regimen: Daily Repeat
Assay type: toxicity, organism-based, Sprague-Dawley
Set-up: regimen Daily Repeat, gender Male, age 6-8 weeks
Conditions: in vivo, po, route oral GAVAGE, vehicle .5 % CMC; for BASOPHIL / EOSINOPHIL / ERYTHROCYTE COUNT / HEMATOCRIT / HEMOGLOBIN / LEUKOCYTE COUNT / LYMPHOCYTE / MEAN CORPUSCULAR HEMOGLOBIN / MEAN CORPUSCULAR HEMOGLOBIN CONCENTRATION / MONOCYTE / NEUTROPHIL / PLATELET COUNT: tissue Blood; for ALANINE AMINOTRANSFERASE / ALBUMIN / ALKALINE PHOSPHATASE / ASPARTATE AMINOTRANSFERASE / BLOOD UREA NITROGEN / CHLORIDE / CHOLESTEROL / CREATINE PHOSPHOKINASE / CREATININE / GLUCOSE / PHOSPHORUS / POTASSIUM / SODIUM / TOTAL BILIRUBIN / TOTAL PROTEIN: tissue Plasma
[1] = 0 mg/kg, 72 h, dose level Control, time 3 day
[2] = 0 mg/kg, 120 h, dose level Control, time 5 day
[3] = 60 mg/kg, 72 h, dose level Low, time 3 day
[4] = 60 mg/kg, 120 h, dose level Low, time 5 day

## CC(C)Cc1ccc([C@H](C)C(=O)O)cc1 [DEXIBUPROFEN]
[1]
  BASOPHIL: 1.52%
  EOSINOPHIL: 0.98%
  ERYTHROCYTE COUNT: 6.96 x10E6/uL
  HEMATOCRIT: 44.65%
  HEMOGLOBIN: 13.62 G/DL
  LEUKOCYTE COUNT: 9.83 x10E3/uL
  LYMPHOCYTE: 76.48%
  MEAN CORPUSCULAR HEMOGLOBIN: 19.57 pg
  MEAN CORPUSCULAR HEMOGLOBIN CONCENTRATION: 30.47 G/DL
  MONOCYTE: 2.13%
  NEUTROPHIL: 18.6%
  PLATELET COUNT: 1217.17 x10E3/uL
  ALANINE AMINOTRANSFERASE: 41 u/L
  ALBUMIN: 3.77 G/DL
  ALKALINE PHOSPHATASE: 411.83 u/L
  ASPARTATE AMINOTRANSFERASE: 62.83 u/L
  BLOOD UREA NITROGEN: 15.17 mg/dL
  CHLORIDE: 104.33 MEQ/L
  CHOLESTEROL: 71.17 mg/dL
  CREATINE PHOSPHOKINASE: 123.5 u/L
  CREATININE: 0.55 mg/dL
  GLUCOSE: 182.67 mg/dL
  PHOSPHORUS: 11.23 mg/dL
  POTASSIUM: 7.03 MEQ/L
  SODIUM: 148 MEQ/L
  TOTAL BILIRUBIN: 0.57 mg/dL
  TOTAL PROTEIN: 6.85 G/DL
[2]
  BASOPHIL: 1.35%
  EOSINOPHIL: 0.43%
  ERYTHROCYTE COUNT: 6.96 x10E6/uL
  HEMATOCRIT: 44.35%
  HEMOGLOBIN: 13.98 G/DL
  LEUKOCYTE COUNT: 9.45 x10E3/uL
  LYMPHOCYTE: 80.83%
  MEAN CORPUSCULAR HEMOGLOBIN: 20.1 pg
  MEAN CORPUSCULAR HEMOGLOBIN CONCENTRATION: 31.52 G/DL
  MONOCYTE: 2.37%
  NEUTROPHIL: 14.05%
  PLATELET COUNT: 1298 x10E3/uL
  ALANINE AMINOTRANSFERASE: 42.17 u/L
  ALBUMIN: 3.77 G/DL
  ALKALINE PHOSPHATASE: 419 u/L
  ASPARTATE AMINOTRANSFERASE: 66.67 u/L
  BLOOD UREA NITROGEN: 16.67 mg/dL
  CHLORIDE: 103.17 MEQ/L
  CHOLESTEROL: 66.33 mg/dL
  CREATINE PHOSPHOKINASE: 148.33 u/L
  CREATININE: 0.58 mg/dL
  GLUCOSE: 196.83 mg/dL
  PHOSPHORUS: 11.8 mg/dL
  POTASSIUM: 6.47 MEQ/L
  SODIUM: 148.33 MEQ/L
  TOTAL BILIRUBIN: 0.53 mg/dL
  TOTAL PROTEIN: 6.77 G/DL
[3]
  BASOPHIL: 1.63%
  EOSINOPHIL: 0.33%
  ERYTHROCYTE COUNT: 7.19 x10E6/uL
  HEMATOCRIT: 45.6%
  HEMOGLOBIN: 14.37 G/DL
  LEUKOCYTE COUNT: 11 x10E3/uL
  LYMPHOCYTE: 73.1%
  MEAN CORPUSCULAR HEMOGLOBIN: 19.97 pg
  MEAN CORPUSCULAR HEMOGLOBIN CONCENTRATION: 31.47 G/DL
  MONOCYTE: 2.23%
  NEUTROPHIL: 22.3%
  PLATELET COUNT: 1212.33 x10E3/uL
  ALANINE AMINOTRANSFERASE: 40.33 u/L
  ALBUMIN: 3.57 G/DL
  ALKALINE PHOSPHATASE: 328 u/L
  BLOOD UREA NITROGEN: 13.33 mg/dL
  CHLORIDE: 104 MEQ/L
  CHOLESTEROL: 71 mg/dL
  CREATINE PHOSPHOKINASE: 116 u/L
  CREATININE: 0.6 mg/dL
  GLUCOSE: 170.33 mg/dL
  PHOSPHORUS: 11.63 mg/dL
  POTASSIUM: 6.3 MEQ/L
  SODIUM: 150 MEQ/L
  TOTAL BILIRUBIN: 0.37 mg/dL
[4]
  BASOPHIL: 1.23%
  EOSINOPHIL: 0.3%
  ERYTHROCYTE COUNT: 6.82 x10E6/uL
  HEMATOCRIT: 42.17%
  HEMOGLOBIN: 13.37 G/DL
  LEUKOCYTE COUNT: 13 x10E3/uL
  LYMPHOCYTE: 76.73%
  MEAN CORPUSCULAR HEMOGLOBIN: 19.6 pg
  MEAN CORPUSCULAR HEMOGLOBIN CONCENTRATION: 31.67 G/DL
  MONOCYTE: 2.2%
  NEUTROPHIL: 18.83%
  PLATELET COUNT: 1398.33 x10E3/uL
  ALANINE AMINOTRANSFERASE: 34 u/L
  ALBUMIN: 3.5 G/DL
  ALKALINE PHOSPHATASE: 320.33 u/L
  ASPARTATE AMINOTRANSFERASE: 59.67 u/L
  BLOOD UREA NITROGEN: 15.67 mg/dL
  CHLORIDE: 104.67 MEQ/L
  CHOLESTEROL: 70.33 mg/dL
  CREATINE PHOSPHOKINASE: 96 u/L
  CREATININE: 0.53 mg/dL
  GLUCOSE: 186.33 mg/dL
  PHOSPHORUS: 12.03 mg/dL
  POTASSIUM: 6.2 MEQ/L
  SODIUM: 149.33 MEQ/L
  TOTAL BILIRUBIN: 0.3 mg/dL
  TOTAL PROTEIN: 6.27 G/DL
